pKa, Kp and concentration data for 7 compounds are collected here from ChEMBL document CHEMBL1955861, “Aminoimidazoles as BACE-1 inhibitors: the challenge to achieve in vivo brain efficacy” (Bioorg Med Chem Lett, 2012).

The nature of data set [1]: Dissociation constant, pKa of the compound. The format is physicochemical.
Data set [2] can be described thus: Ratio of drug level in brain to plasma in C57BL/6 mouse at 300 umol/kg, po administered as single dose 15 mins after GF120918 90 umol/kg, po measured after […] by RPLC-MS/MS analysis. The format is ADME, organism-based. Conditions: with GF120918 90 umol/kg po, read-out: BPR.
A short description of data set [3]: Drug uptake in C57BL/6 mouse brain at 300 umol/kg, po administered as single dose 15 mins after GF120918 90 umol/kg, po measured after […] by RPLC-MS/MS analysis. It is filed as ADME, organism-based. Conditions: with GF120918 90 umol/kg po, read-out: Drug uptake.
Data set [4] is described as follows: Ratio of drug level in brain to plasma in C57BL/6 mouse at 300 umol/kg, po administered as single dose measured after […] by RPLC-MS/MS analysis. The format is ADME, organism-based. Particulars: read-out: BPR.

`NC1=NC(c2ccc(OC(F)F)cc2)(c2cccc(OCCCF)c2)C2=NCC(F)(F)CN12` (centres undefined) registered a pKa in data set [1] of 6.5.

Compound `COc1cccc(-c2cccc([C@]3(c4ccncc4)N=C(N)N4CC(F)(F)CN=C43)c2)c1F` displayed a pKa in data set [1] of 5.3.

`COc1ccc(F)c(-c2cccc(C3(c4ccncc4)N=C(N)N4CC(F)(F)CN=C43)c2)c1` (centres undefined): the pKa in data set [1] turned out to be 5.9.

For the compound `COc1ccc(C2(c3cccc(-c4cncnc4)c3)N=C(N)N3CC(F)(F)CN=C32)cc1` (centres undefined), in data set [1], the pKa amounted to 6.8.

Take `NC1=NC(c2ccncc2)(c2cccc(-c3cncnc3)c2)C2=NCCCN12` (centres undefined): the pKa in data set [1] is 7.6.

With `NC1=N[C@](c2ccc(OC(F)F)cc2)(c2cccc(OCCCF)c2)C2=NCC(F)(F)CN12`, the Kp at […] in data set [2] amounted to 2.34; in data set [4] it was 0.18. Also, the concentration at […] in data set [3] came out at 4 µM.

For `NC1=NC(c2ccc(OC(F)F)cc2)(c2cccc(-c3cncnc3)c2)C2=NCC(F)(F)CN12` (centres undefined), the pKa in data set [1] worked out at 6.1.

As a reminder, the pKa is the pH at which an ionisable group is half protonated. High values mean a group that holds its proton tightly, low ones a group that gives up its proton readily.
